Results from publication PMC3741170, “Reconstructing the Qo Site of Plasmodium falciparum bc 1 Complex in the Yeast Enzyme” (PLoS ONE, 2013).
Where “and” joins values, the source holds several entries; their conditions need not be identical. Equal entries are not always repeated.

Experiments:
[1] = molecular target: T1, bovine bc 1 complex (Bos taurus, UniProt P00157); test: Quinol:cytochrome c reductase activity, inhibitor titration, bovine mitochondria; type: biochemical; conditions: bovine enzyme; ratio of IC50 on concentration of monomeric bc 1 complex
T1 construct: Peter Rich; from tissue
Procedure: (§1) Yeast mitochondria were prepared as in [16]. Bovine mitochondrial samples were kindly given by Prof. Peter Rich (UCL, UK). Quinol:cytochrome c reductase activity measurements were performed in 10mM potassium phosphate pH 7 and 20µM equine cytochrome c at room temperature. Mitochondria were diluted to 5–30 nM bc 1 complex. Concentrations of monomeric bc 1 complex were determined from the cytochrome b α-band in dithionite-reduced optical spectra, using ε = 28.5 mM^−1.cm^−1 at 562 nm minus 575 nm. Activity was initiated by the addition of 20µM decylubiquinol. Cytochrome c reduction was recorded at 550 nm versus 540 nm over a 3-min time-course in a Beckmann DU 640 spectrophotometer. Initial rates were measured. From these rates, turnover numbers (TN) were calculated as cytochrome c reduced per bc 1 complex per second.
(§2) Cytochrome c reduction activity was measured as described above in presence of increasing concentrations of inhibitors (six to ten different concentrations). Each measurement was repeated at least twice and averaged. […] The mid-point inhibition concentrations (IC50) were determined from the titrations. As the titrations were performed using mitochondrial samples containing different concentrations of bc 1 complex (5–30 nM), the results were presented as ratio of IC50 on the concentration of bc 1 complex.

[2] = molecular target: T2, Yeast WT bc 1 complex (Saccharomyces cerevisiae, UniProt P00163); test: Quinol:cytochrome c reductase activity, inhibitor titration, yeast WT mitochondria; type: biochemical; conditions: ratio of IC50 on concentration of monomeric bc 1 complex
T2 construct: Yeast mitochondria were prepared as in; endogenous in cells; host or cells: Saccharomyces cerevisiae mitochondria
Procedure: as §1, §2

[3] = molecular target: T3, yeast bc 1 complex, Plasmodium-like Qo mutant PF1 (Saccharomyces cerevisiae, UniProt P00163, C133V/C134L/H141Y/V135P/Y136W); test: Quinol:cytochrome c reductase activity, inhibitor titration, Plasmodium-like mutant PF1; type: biochemical; conditions: ratio of IC50 on concentration of monomeric bc 1 complex
T3 construct: Yeast mitochondria were prepared as in; expressed in transfected cells; host or cells: Saccharomyces cerevisiae, mitochondrial transformation; mitochondria
Procedure: (§3) The mutants were generated by side-directed mutagenesis and mitochondrial transformation as described in [15]. They have identical nuclear and mitochondrial genomes with the exception of the mutations introduced in the cytochrome b gene.
as §1, §2

[4] = molecular target: T4, yeast bc 1 complex, Plasmodium-like Qo mutant PF2 (Saccharomyces cerevisiae, UniProt P00163, C133V/C134L/H141Y/L275F/V135P/Y136W); test: Quinol:cytochrome c reductase activity, inhibitor titration, Plasmodium-like mutant PF2; type: biochemical; conditions: ratio of IC50 on concentration of monomeric bc 1 complex
T4 construct: Yeast mitochondria were prepared as in; expressed in transfected cells; host or cells: Saccharomyces cerevisiae, mitochondrial transformation; mitochondria
Procedure: as §3, §1, §2

[5] = system: yeast bc 1 complex, Plasmodium-like Qo mutant PF8; test: Quinol:cytochrome c reductase activity, inhibitor titration, Plasmodium-like mutant PF8; type: biochemical, Saccharomyces cerevisiae; conditions: for IC50: ratio of IC50 on concentration of monomeric bc 1 complex
Procedure: as §3, §1, §2

[6] = system: yeast bc 1 complex, Plasmodium-like Qo mutant PF11; test: Quinol:cytochrome c reductase activity, inhibitor titration, Plasmodium-like mutant PF11; type: biochemical, Saccharomyces cerevisiae; conditions: for IC50: PF11, ratio of IC50 on concentration of monomeric bc 1 complex
Procedure: as §3, §1, §2

[7] = system: yeast bc 1 complex, Plasmodium-like Qo mutant PF12 (PF11 + Y279S); test: Quinol:cytochrome c reductase activity, inhibitor titration, Plasmodium-like mutant PF12; type: biochemical, Saccharomyces cerevisiae; conditions: ratio of IC50 on concentration of monomeric bc 1 complex
Procedure: as §3, §1, §2

[8] = molecular target: T5, yeast bc 1 complex, cytochrome b mutant Y279S (Saccharomyces cerevisiae, UniProt P00163, Y279S); test: Quinol:cytochrome c reductase activity, inhibitor titration, mutant Y279S; type: biochemical; conditions: ratio of IC50 on concentration of monomeric bc 1 complex
T5 construct: Yeast mitochondria were prepared as in; expressed in transfected cells; host or cells: Saccharomyces cerevisiae, mitochondrial transformation; mitochondria
Procedure: as §3, §1, §2

[9] = molecular target: T6, yeast bc 1 complex, cytochrome b mutant L275F (Saccharomyces cerevisiae, UniProt P00163, L275F); test: Quinol:cytochrome c reductase activity, inhibitor titration, mutant L275F; type: biochemical; conditions: for IC50: L275F, ratio of IC50 on concentration of monomeric bc 1 complex
T6 construct: Yeast mitochondria were prepared as in; expressed in transfected cells; host or cells: Saccharomyces cerevisiae, mitochondrial transformation; mitochondria
Procedure: as §3, §1, §2

[10] = system: P. falciparum bc 1 complex; conditions: P. falciparum enzyme; not expressed as molar ratio; cited from earlier work
[11] = molecular target: T7, yeast bc 1 complex, cytochrome b mutant F278A (Saccharomyces cerevisiae, UniProt P00163, F278A); test: Quinol:cytochrome c reductase activity, inhibitor titration, mutant F278A; type: biochemical; conditions: for IC50 increase (resistance) vs WT: F278A vs yeast WT; for IC50: F278A, ratio of IC50 on concentration of monomeric bc 1 complex
T7 construct: Yeast mitochondria were prepared as in; expressed in transfected cells; host or cells: Saccharomyces cerevisiae, mitochondrial transformation; mitochondria
Procedure: as §3, §1, §2

[12] = molecular target: T8, yeast bc 1 complex, cytochrome b mutant M295L (Saccharomyces cerevisiae, UniProt P00163, M295L); test: Quinol:cytochrome c reductase activity, inhibitor titration, mutant M295L; type: biochemical; conditions: for IC50: M295L, ratio of IC50 on concentration of monomeric bc 1 complex
T8 construct: Yeast mitochondria were prepared as in; expressed in transfected cells; host or cells: Saccharomyces cerevisiae, mitochondrial transformation; mitochondria
Procedure: as §3, §1, §2

[13] = molecular target: yeast bc 1 complex, human-like Qo mutant HSa; test: Quinol:cytochrome c reductase activity, inhibitor titration, human-like mutant HSa; type: biochemical, Saccharomyces cerevisiae; conditions: ratio of IC50 on concentration of monomeric bc 1 complex
Procedure: as §3, §1
Cytochrome c reduction activity was measured as described above in presence of increasing concentrations of inhibitors (six to ten different concentrations). Each measurement was repeated at least twice and averaged. […] The mid-point inhibition concentrations (IC50) were determined from the titrations. […]

[14] = molecular target: T9, yeast bc 1 complex, human-like Qo mutant HSb (Saccharomyces cerevisiae, UniProt P00163, F278A/L275F/M295L); test: Quinol:cytochrome c reductase activity, inhibitor titration, human-like mutant HSb; type: biochemical; conditions: for IC50: HSb, ratio of IC50 on concentration of monomeric bc 1 complex
T9 construct: Yeast mitochondria were prepared as in; expressed in transfected cells; host or cells: Saccharomyces cerevisiae, mitochondrial transformation; mitochondria
Procedure: as §3, §1, §2

[15] = molecular target: T10, yeast bc 1 complex, human-like Qo mutant HSc (Saccharomyces cerevisiae, UniProt P00163, C133V/C134L/F278A/H141F/L275F/M295L/V135P/Y136W); test: Quinol:cytochrome c reductase activity, inhibitor titration, human-like mutant HSc; type: biochemical; conditions: for IC50: HSc, ratio of IC50 on concentration of monomeric bc 1 complex
T10 construct: Yeast mitochondria were prepared as in; expressed in transfected cells; host or cells: Saccharomyces cerevisiae, mitochondrial transformation; mitochondria
Procedure: as §3, §1, §2

[16] = system: yeast bc 1 complex, PF11 with deletion Δ158–161; test: Quinol:cytochrome c reductase activity, PF11 with deletion Δ158–161; type: biochemical, Saccharomyces cerevisiae; conditions: deletion introduced in PF11; not shown
Procedure: as §1, §2

[17] = molecular target: T6, yeast bc 1 complex, cytochrome b mutant L275F; conditions: vs yeast WT; cited from earlier work
[18] = system: Rhodabacter capsulatus bc 1 complex; conditions: bacterial complex, phenylalanine naturally at position 275; cited from earlier work
[19] = system: Rhodabacter capsulatus bc 1 complex, mutations I281M and R283K (yeast numbering); set-up: method as in PMID 15917236; conditions: bacterial complex with I281M and R283K; cited from earlier work
[20] = system: bovine bc 1 complex; test: Quinol:cytochrome c reductase activity, inhibitor titration, bovine mitochondria; type: biochemical; conditions: bovine vs yeast WT
Procedure: as §1, §2

[21] = system: P. falciparum; conditions: read-out: IC50, P. falciparum proliferation; cited from earlier work

| Molecule | IC50 [1] | IC50 [2] | IC50 [3] | IC50 [4] | IC50 [5] | IC50 [6] | IC50 [7] | IC50 [8] | IC50 [9] | IC50 [10] | IC50 increase (resistance) vs WT [11] | IC50 [11] | IC50 [12] | IC50 [13] | IC50 [14] | IC50 [15] | also measured |
| --- | --- | --- | --- | --- | --- | --- | --- | --- | --- | --- | --- | --- | --- | --- | --- | --- | --- |
| CCOC(=O)c1c[nH]c2cc(Oc3ccc(OC(F)(F)F)cc3)ccc2c1=O [RCQ06] | 40 molar ratio | >500 molar ratio | >500 molar ratio | 10 molar ratio | 40 molar ratio | 25 molar ratio | >500 molar ratio | >500 molar ratio | 10 molar ratio | ~1.3 nM and 1.3 nM |  |  |  |  |  |  | increase in sensitivity vs WT ([9]; L275F vs yeast WT): over 50 fold |
| O=C1C(O)=C([C@H]2CC[C@H](c3ccc(Cl)cc3)CC2)C(=O)c2ccccc21 [atovaquone] | 75 molar ratio | 4 molar ratio | 2 molar ratio | 10 molar ratio | 16 molar ratio | 3 molar ratio | >850 molar ratio | >850 molar ratio | 150 molar ratio | ~3 nM and 3 nM | 9 fold | 35 molar ratio | 10 molar ratio | 200 molar ratio | 170 molar ratio | 60 molar ratio | IC50 increase (resistance) vs WT ([9]; L275F vs yeast WT): 35 fold; IC50 increase (resistance) vs WT ([12]; M295L vs yeast WT): 2.5 fold; resistance vs WT enzyme ([15]; HSc vs yeast WT): 15 fold; effect of deletion Δ158–161 on sensitivity [16]: little effect; decrease in sensitivity on introducing L275F in yeast bc 1 complex [17]: over 20 fold; IC50 [18]: ~30 nM; IC50 [19]: 10 nM |
| CO/C=C(/C(=O)OC)c1ccccc1Oc1cc(Oc2ccccc2C#N)ncn1 [azoxystrobin] | 180 molar ratio | 20 molar ratio | 5 molar ratio | 16 molar ratio | 220 molar ratio | 40 molar ratio | 30 molar ratio | 60 molar ratio | 30 molar ratio |  | 6 fold | 120 molar ratio | 45 molar ratio | 130 molar ratio | 160 molar ratio | 140 molar ratio | resistance of the mammalian enzyme compared to yeast enzyme [20]: 9 fold; increase in resistance caused by modifications of residues 283 to 299 [5]: 10 fold; lowering of resistance by changes in position 133 to 141 ([6]; PF11 vs PF8): 5 fold; resistance conferred by triple mutation ([14]; HSb vs yeast WT): 8 fold; IC50 [21]: 15 nM |
| antimycin |  |  |  |  |  |  |  |  |  |  |  |  |  |  |  |  | sensitivity compared with that of the WT control ([6]; PF11 vs WT, data not shown): No or very little difference; sensitivity compared with that of the WT control ([15]; HSc vs WT, data not shown): No or very little difference |
